In brackets after ≈: the same amount, converted by molar mass. Several values for one entry are separate records, joined by “and”; a condition that tells them apart may be missing. Equal entries are not always repeated. Structures can show the parent of a compound that is named as a salt. Where two headings read alike, the source gives them in different places.

Data set [1] concerns the target T1, Pig pancreas trypsin (Sus scrofa, UniProt P00761). Kind of data set: Hydrolysis of substrate by trypsin, Michaelis kinetics. The format is biochemical. As to the method:
Crystalline Z-Arg-ATC hydrochloride (Seratec): 10^-3 M solution in Tris buffer, pH 8.0+CACl2, 10 mM.
Pig pancreas trypsin (SIGMA T0134): 10^-3 M solution in Tris buffer, pH 8.0+CACl2, 10 mM.
Tris buffer: solution A: 0.2M Tris, i.e. 24.23 g/l+CaCl2, 40 mM, i.e. 5.88 g/l; solution B: 0.1M HCl.
This buffer is prepared by mixing 250 ml of solution A with 268 ml of solution B and by topping up to 1 liter with water.
Acetate buffer: solution A: 0.02M acetic acid; solution B: 0.02M sodium acetate.
This buffer is prepared by mixing volume by volume solutions A and B to obtain a buffer at pH 4.75.
Aqueous 1.17N perchloric acid solution (1/10 dilution of pure acid).
The following substrate concentration range was prepared in tubes: 0-0.2-0.5-1-2-5-10×10^-4 M (final concentration).
To each tube was added a concentration of 6.67 μg/ml of trypsin, everything being dissolved in the Tris buffer pH 8.0+CaCl2, 10 mM and at ambient temperature. The enzyme is added at time 0. After 2 minutes, 250 μl are removed from each tube and poured into tubes containing 250 μl of 1.17N perchloric acid and 500 μl of water. The tubes are centrifuged and then the solution is diluted to 1/250 in the acetate buffer. The same operation is repeated at 17 min. The fluorescence intensity is measured at 380/490nm. The difference of the intensities at 17 and 2 min constitutes the signal.
The corresponding ATC concentration is calculated compared with a calibration range from 5×10^-9 to 2×10^-7 M.
This was followed by the determination of Km, Vm, kcat and the ratio kcat/Km. The results obtained are given in table 6, which also gives for comparison purposes the values obtained with Z-L-Arg-AMC and Bz DL Arg-AMC and Bz -L-Arg-AMC.

Data set [2] has as its target T1, Pig pancreas trypsin. The data set is described as follows: Determination of trypsin, analytical characteristics. The format is biochemical. As to the method: Six calibration ranges containing a final enzyme concentration of 0-0.42-0.84-1.67-3.33-6.67 μg/ml were prepared. Each calibration curve was determined by linear regression. The mean standard deviation is 2.45×10^-3 ±0.003×10^-3 for the gradient and 4.80×10^-3 ±2.53×10^-3 for the intercept The linearity test is significant at the 5% threshold (W=0.245). The quantification limit, calculated by the ratio 3σb /a is 0.05 μg/ml. The repeatability, evaluated by the variation coefficient, is 9.4% at 0.42 μg/ml, 5.9% at 0.84 μg/ml and 1.3% at 6.67 μg/ml.

Data set [3] is described as follows: Excitation and emission spectra of ATC derivatives (Table 4). The format is physicochemical. The settings on record: 10^-7 M, Z-Arg-ATC in 50 mM Tris pH 8, 10 mM CaCl2. How it is done:
The excitation and emission spectra of ATC and Z-Arg-ATC were plotted on the basis of 10^-7 M solutions in the 50 mM Tris buffer at pH 8 containing 10 mM of CaCl2. The maxima obtained are indicated in table 4 with the corresponding maxima of Leu-ATC.

A short description of data set [4]: Excitation and emission spectra of substrates and hydrolysis products (Table 1). The format is physicochemical. The settings on record: 10^-7 M in Tris buffer, pH 7.8.
A short description of data set [5]: Solubility in water and in water-ethanol mixtures. The format is physicochemical.
The test system of another data set is Leucine aminopeptidase. To be noted: known substrates, for comparison; medium with organic solvent; cited from earlier work.
The target of data set [6] is T1, Pig pancreas trypsin. The settings on record: for comparison purposes; cited from earlier work.
Where [7] appears, read: enzyme 0-6.67 μg/ml, linear regression.
The mark [8] stands for this setting: water, read-out: Solubility in water.

T1 sequence (P00761 9-231): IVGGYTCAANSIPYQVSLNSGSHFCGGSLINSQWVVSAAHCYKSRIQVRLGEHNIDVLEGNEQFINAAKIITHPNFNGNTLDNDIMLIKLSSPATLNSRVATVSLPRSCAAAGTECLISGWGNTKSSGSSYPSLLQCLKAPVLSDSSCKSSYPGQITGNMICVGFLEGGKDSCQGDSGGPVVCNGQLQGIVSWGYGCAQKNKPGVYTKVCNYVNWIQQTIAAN

For the compound `COCCOCCOCc1cc(=O)oc2cc(NC(=O)[C@H](CCCNC(=N)N)NC(=O)OCc3ccccc3)ccc12` [Compound 14, N-carbobenzyloxy-L-arginyl-4-(2',5',8'-trioxanonyl)-7-coumarinylamide hydrochloride], the Vm at Pig pancreas trypsin [1] (Tris buffer pH 8.0 + CaCl2 10 mM, ambient temperature) came to 474 nmole/min/mg Ez. Besides, the ATC hydrolysis solution on Pig pancreas trypsin [1] (substrate 0.2×10^-4 M) was found to be 0.224 µM/min; at Pig pancreas trypsin [1] (substrate 0.5×10^-4 M) it was 0.467 µM/min; on Pig pancreas trypsin [1] (substrate 1×10^-4 M), 1.03 µM/min; at Pig pancreas trypsin [1] (substrate 2×10^-4 M), 1.81 µM/min; at Pig pancreas trypsin [1] (substrate 5×10^-4 M), 2.36 µM/min; on Pig pancreas trypsin [1] (substrate 10×10^-4 M), 2.57 µM/min. In addition, the ATC working solution at Pig pancreas trypsin [1] (substrate 0.2×10^-4 M) is given as 3.36 nM; at Pig pancreas trypsin [1] (substrate 0.5×10^-4 M), 7.00 nM; on Pig pancreas trypsin [1] (substrate 1×10^-4 M), 15.4 nM; at Pig pancreas trypsin [1] (substrate 2×10^-4 M), 27.1 nM; at Pig pancreas trypsin [1] (substrate 5×10^-4 M), 35.4 nM; at Pig pancreas trypsin [1] (substrate 10×10^-4 M) it was 38.6 nM. Besides, the “IF(17)-IF(2)” value is 3.7 on Pig pancreas trypsin [1] (substrate 0.2×10^-4 M); 7.7 at Pig pancreas trypsin [1] (substrate 0.5×10^-4 M); 16.9 on Pig pancreas trypsin [1] (substrate 1×10^-4 M); 29.8 on Pig pancreas trypsin [1] (substrate 2×10^-4 M); 38.9 at Pig pancreas trypsin [1] (substrate 5×10^-4 M); 42.4 on Pig pancreas trypsin [1] (substrate 10×10^-4 M). Moreover, the “affinity and activity compared with Bz-DL-Arg-AMC” value on Pig pancreas trypsin [1] (words) was “comparable with Bz-DL-Arg-AMC”. Also, the “repeatability (variation coefficient)” value is 9.4% at Pig pancreas trypsin [2] (at 0.42 μg/ml enzyme), 5.9% on Pig pancreas trypsin [2] (at 0.84 μg/ml enzyme) and 1.3% at Pig pancreas trypsin [2] (at 6.67 μg/ml enzyme). The “gradient of calibration curve” value at Pig pancreas trypsin [2] (setting [7]) is listed as 2.45×10^-3 ±0.003×10^-3. In addition, at Pig pancreas trypsin [2] (setting [7]), the “intercept of calibration curve” value is on record as 4.80×10^-3 ±2.53×10^-3. For the same compound, the quantification limit on Pig pancreas trypsin [2] (trypsin, ratio 3σb/a) came out at 0.05 µg/mL. For the same compound, the “detection limit for trypsin compared with substrates derived from AMC” value on Pig pancreas trypsin [2] (words) is on record as “of the same order of magnitude as that obtained with substrates derived from AMC”. The “excitation maximum, substrate” value in data set [3] turned out to be 355 nm. The “fluorescence maximum, substrate” value in data set [3] (hydrochloride) was 415 nm and 450 nm.

On to `N=C(N)NCCC[C@H](NC(=O)CNC(=O)CN)C(=O)Nc1ccc2c(CS(=O)(=O)O)cc(=O)oc2c1` [GlyGly Arg AMCS, reference compound], for which, in data set [4], the “Maximum excitation wavelength, substrate” value amounted to 336 nm and the “Maximum fluorescence wavelength, substrate” value came out at 409 nm.

On to `COCCOCCOCc1cc(=O)oc2c3c4c(cc12)CCCN4CCC3` [Compound 7, 2,3,6,7-tetrahydro-9-(2',5',8'-trioxanonyl)-1H, 5H, 11H-(1)-benzopyrano-(6,7,8-ij)-quinolizinone-11], for which the solubility (as a rule, the concentration that dissolves in the medium under given conditions) in data set [5] (ethanol:water 30:70, organic solvent or mixture, read-out: Solubility in ethanol:water mixture (30:70)) came out at 3000 µg/mL (≈ 8.03 mM); in data set [5] (setting [8]) it was 200 µg/mL (≈ 0.536 mM).

For the compound `CC(C)C[C@H](N)C(=O)Nc1ccc2ccccc2c1` [Leu-βnaphthylamide], in the data set on Leucine aminopeptidase, the Km (commonly the concentration of substrate that gives half-maximal velocity) is 150 µM and the Vm is listed as 5.5 μmole/mg Ez/min.

As for `Cc1cc(=O)oc2cc(NC(=O)C(CCCNC(=N)N)NC(=O)c3ccccc3)ccc12` (racemic) [Bz--DL--Arg--AMC], at Pig pancreas trypsin [6], the Km was 250 µM; the kcat (usually the maximal rate divided by the concentration of active sites) is 0.20 s⁻¹; the kcat/Km – broadly, the turnover number divided by the Michaelis constant – is 800 M⁻¹ s⁻¹.

As to `Cc1cc(=O)oc2cc(NC(=O)[C@H](CCCNC(=N)N)NC(=O)c3ccccc3)ccc12` [Bz--L--Arg--AMC], at Pig pancreas trypsin [6], the Km was 110 µM, the kcat was 0.42 s⁻¹ and the kcat/Km is 3800 M⁻¹ s⁻¹.

As for `COCCOCCOCc1cc(=O)oc2cc(O)ccc12` [Compound 10, 7-hydroxy-4-(2',5',8'-trioxanonyl)coumarin], the solubility in data set [5] (water-ethanol 90:10, organic solvent or mixture, read-out: Solubility in the water-ethanol mixture (90:10)) came out at 7000 µg/mL (≈ 23.8 mM); in data set [5] (setting [8]) it was 1000 µg/mL (≈ 3.4 mM).

Take `Cc1cc(=O)oc2cc(NC(=O)[C@H](CCCNC(=N)N)NC(=O)OCc3ccccc3)ccc12` [Z--L--Arg--AMC]: on Pig pancreas trypsin [6], the Km was 200 µM, the kcat was 0.89 s⁻¹ and the kcat/Km is 4500 M⁻¹ s⁻¹.
